Several values for one entry are separate records, joined by “and”; a condition that tells them apart may be missing. Equal entries are not always repeated. Where two headings read alike, the source gives them in different places.
Experiments:
Human GGT1 (hGGT) [1] = target: T1, Human GGT1 (hGGT) (Homo sapiens, UniProt P19440); assay: L-GpNA Transpeptidation Assay with GlyGly as acceptor; format: biochemical; parameters: lacking the transmembrane domain; made in house; host or cells: Pichia pastoris; details: for fold change in L-GpNA Kii (transpeptidation) relative to Compound 16: weaker than Compound 16
T1 sequence (P19440 381-569 limits assumed): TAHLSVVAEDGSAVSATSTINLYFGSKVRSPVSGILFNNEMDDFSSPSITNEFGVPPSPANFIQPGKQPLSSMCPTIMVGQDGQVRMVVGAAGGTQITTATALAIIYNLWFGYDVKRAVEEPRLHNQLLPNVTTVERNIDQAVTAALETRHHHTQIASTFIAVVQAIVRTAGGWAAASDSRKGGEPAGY
T1 sequence (P19440 27-380 limits assumed): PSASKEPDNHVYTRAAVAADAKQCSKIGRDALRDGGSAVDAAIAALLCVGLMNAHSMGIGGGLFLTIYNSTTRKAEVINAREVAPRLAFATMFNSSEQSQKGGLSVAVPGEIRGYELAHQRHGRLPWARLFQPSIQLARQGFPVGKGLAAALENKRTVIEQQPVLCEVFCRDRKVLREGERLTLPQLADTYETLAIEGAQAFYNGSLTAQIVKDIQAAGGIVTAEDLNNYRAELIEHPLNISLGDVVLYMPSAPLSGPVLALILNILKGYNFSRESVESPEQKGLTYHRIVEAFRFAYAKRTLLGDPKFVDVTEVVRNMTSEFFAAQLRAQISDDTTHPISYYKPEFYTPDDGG
Experimental: Transpeptidation Reaction: The same assay buffer was used for both the hydrolysis reaction and the transpeptidation reaction. The transpeptidation reaction included 40 mM glycylglycine (glygly, Sigma, St. Louis, Mo.) as the acceptor. […] The concentration of L-GpNA was 3 mM for experiments in which the concentration of glygly was varied. To initiate the transpeptidation reaction, 4 mU GGT were added.
1. […] 3 and 4. […] 5 (25).
L-GpNA Transpeptidation Assay: The assay has been described previously. […] The concentration of L-GpNA was 3 mM for experiments in which the concentration of GlyGly was varied. To initiate the transpeptidation reaction, 4 mU GGT were added.

Human GGT1 (hGGT) [2] = target: T1, Human GGT1 (hGGT); assay: D-GpNA Hydrolysis Assay (release of pNA, 405 nm, pH 7.4); details: for Vo (maximum velocity at zero activator) / V∞ (maximum rate at infinite activator): Hydrolysis D-GpNA, Table 3; for maximal fold induction: human; for fold less effective than OU749 in inhibiting hydrolysis of D-GpNA: relative to OU749
Experimental: Enzyme Isolation: Human GGT1 (P19440), lacking the transmembrane domain, was expressed in Pichia pastoris and isolated as previously described (14). […] One unit of GGT activity was defined as the amount of enzyme that released 1 μmol of paranitroaniline/min at 37° C. at pH 7.4 in the transpeptidation reaction.
The reaction was initiated with the addition of 19 mU GGT. The reaction was incubated at 37° C. and monitored continuously at 405 nm by a Bio-Rad model 680 microplate reader with Microplate Manager 5.2 software (Bio-Rad, Hercules, Calif.).
Data Analysis: Samples in each experiment were run in triplicate. Each inhibitor was evaluated in two or more independent experiments. Double reciprocal plots were generated to assess data quality and determine the correct rate equation for data fitting. Data were fitted using the proper rate equation and the Marquardt-Levenberg algorithm supplied with the Enzfitter program (BIOSOFT, Cambridge, UK). Kinetic parameters with standard errors were estimated using a simple weighting method.
Data adhering to Michaelis-Menten Kinetics were fitted to eq. 1. Data for initial rate patterns with D-, L-GpNA varied at different fixed levels of glygly were fitted to eq. […] Data for competitive and uncompetitive inhibition were fitted to eqs. 3 and 4. Data for the dependence of Vmax and Vmax/KD-GpNA on the concentration of activator were fitted using eq. 5 (25).
In eqs 1-6, Vmax are the initial and maximum rates, respectively, Ka and Kb are Michaelis constants for substrates A and B, respectively, and Kis and Kii are slope and intercept inhibition constants. In eq. 5, a is the value of Vmax or Vmax/KD-GpNA at zero activator/inhibitor, KID is the activation or inhibition constant, and KIN is a constant that causes the parameter to go to a constant value at infinite concentrations of X, the activator/inhibitor. The product a(KID/KIN) is the value of Vmax or Vmax/KD-GpNA at infinite activator/inhibitor (25). Data for noncompetitive inhibition were fitted to eq. 6. Data for the dependence of Vmax and Vmax/KD-GpNA on the concentration of activator were fitted using […].
Enzyme Isolation: hGGT (P19440), lacking the transmembrane domain, was expressed in Pichia pastoris and isolated as previously described. […] One unit of GGT activity was defined as the amount of enzyme that released 1 μmol of paranitroaniline/min at 37° C. at pH 7.4 in the transpeptidation reaction with L-GpNA.
D-GpNA Hydrolysis Assay: The assay was carried out as previously described. […] The reaction was initiated with the addition of 19 mU GGT as determined by the L-GpNA transpeptidation assay. The reaction was incubated at 37° C. and monitored continuously at 405 nm.

hGGT = target: T2, hGGT (Homo sapiens, UniProt P19440); assay: L-Glutamate Release Assay (Hydrolysis of GSH); format: biochemical; details: for Ki: read-out: GSH Kii
T2 construct: lacking the transmembrane domain; made in house; host or cells: Pichia pastoris
T2 sequence (P19440 381-569 limits assumed): as the sequence (P19440 381-569 limits assumed) above
T2 sequence (P19440 27-380 limits assumed): as the sequence (P19440 27-380 limits assumed) above
Experimental: L-Glutamate Release Assay (Hydrolysis of GSH): This assay measures the production of glutamate from the hydrolysis of GSH by GGT enzyme and has been described in detail previously. The concentration of the substrate, GSH, was varied from 5 μM to 20 μM. The concentration of the inhibitors, OU749 and its analogs, were varied from 15.6 μM to 250 μM. The reaction was initiated with the addition of 10 mU hGGT. […] All compounds were also evaluated as inhibitors of glutamate dehydrogenase, the enzyme in the second half of the L-glutamate release assay. None of the compounds in this study inhibited glutamate dehydrogenase.

[3] = GlyGly varied, 3 mM L-GpNA, Table 2, read-out: Transpeptidation GlyGly Kis
[4] = L-GpNA varied, 40 mM GlyGly, Table 2, read-out: Transpeptidation L-GpNA Kii
[5] = Table 3, read-out: Transpeptidation GlyGly Kis
[6] = Table 3, read-out: Transpeptidation L-GpNA Kii
[7] = pH 7.4, read-out: Fold Activation
[8] = read-out: activation of the Vmax for hydrolysis (V∞/Vo)
[9] = Table 5, read-out: GlyGly with L-GpNA Kis
[10] = Table 5, read-out: L-GpNA with GlyGly Kii

Structure (SMILES) | Ki (Human GGT1 (hGGT) [1]; [3]) | Ki (Human GGT1 (hGGT) [2]) [µM] | Ki (Human GGT1 (hGGT) [1]; [5]) | Ki (Human GGT1 (hGGT) [1]; [6]) [µM] | Vo (maximum velocity at zero activator) (Human GGT1 (hGGT) [2]) [mM/min/nM] | V∞ (maximum rate at infinite activator) (Human GGT1 (hGGT) [2]) [mM/min/nM] | maximal fold induction (Human GGT1 (hGGT) [2]; [7]) | maximal fold induction (Human GGT1 (hGGT) [2]; [8]) | further results
COc1ccc(Cc2nnc(NS(=O)(=O)c3ccc(Cl)c(Cl)c3)s2)cc1 [Compound 8] | 10.8 ± 0.8 µM | 3160 ± 90 | – | – | – | – | – | – | Ki (Human GGT1 (hGGT) [1]; [4]): 18.2 ± 0.7 µM; Ki (hGGT; GSH hydrolysis, Table 6): > 250 µM
O=[N+]([O-])c1ccc(S(=O)(=O)Nc2nnc(Cc3cccc(Cl)c3)s2)cc1 [Compound 15] | – | – | 43.8 ± 7.7 µM | 119 ± 7.1 | 1.30 ± 0.01 | 5.86 ± 0.23 | 4.51 ± 0.05 | 3 to 6 | fold change in L-GpNA Kii (transpeptidation) relative to Compound 16 (Human GGT1 (hGGT) [1]): 2 fold
O=[N+]([O-])c1ccc(S(=O)(=O)Nc2nnc(Cc3ccccc3)s2)cc1 [Compound 13] | – | – | 59.6 ± 3.7 µM | 111 ± 5.5 | 1.59 ± 0.06 | 9.09 ± 0.55 | 5.72 ± 0.32 | 3 to 6 | fold change in L-GpNA Kii (transpeptidation) relative to Compound 16 (Human GGT1 (hGGT) [1]): ~2 fold
O=[N+]([O-])c1ccc(S(=O)(=O)Nc2nnc(Cc3ccc(Cl)cc3)s2)cc1 [Compound 16] | – | – | 44.4 ± 3.4 µM | 61.9 | 1.71 ± 0.09 | 7.70 ± 0.46 | 4.5 ± 0.63 | 3 to 6 | Ki (Human GGT1 (hGGT) [1]; Table 7, read-out: L-GpNA with GlyGly Kii): 62 ± 2 µM
O=[N+]([O-])c1ccc(Cc2nnc(NS(=O)(=O)c3ccc([N+](=O)[O-])cc3)s2)cc1 [Compound 14] | – | – | 81.2 ± 8.8 µM | 132 ± 5.5 | 1.27 ± 0.01 | 5.08 ± 0.41 | 4 ± 0.11 | 3 to 6 | –
COc1ccc(Cc2nnc(NS(=O)(=O)c3ccc(NO)cc3)s2)cc1 [Compound 5] | 25.7 ± 1.3 µM | 149 ± 13.6 | – | – | – | – | – | – | Ki (Human GGT1 (hGGT) [1]; [4]): 64.4 ± 5.1 µM; fold less effective than OU749 in inhibiting hydrolysis of D-GpNA (Human GGT1 (hGGT) [2]): 2-5 fold
COc1ccc(Cc2nnc(NS(=O)(=O)c3ccc(C)cc3)s2)cc1 [Compound 2] | 10 ± 0.4 µM | 73.3 ± 4 | – | – | – | – | – | – | Ki (Human GGT1 (hGGT) [1]; [4]): 22.7 ± 0.5 µM; Ki (hGGT; GSH hydrolysis, Table 4): 506 ± 75 µM; fold less potent than OU749 in inhibiting GSH hydrolysis (hGGT; relative to OU749): 1.3 fold
Cc1cccc(Cc2nnc(NS(=O)(=O)c3ccc([N+](=O)[O-])cc3)s2)c1 [Compound 18] | – | – | 34.3 ± 0.9 µM | 121 ± 8.8 | 1.15 ± 0.01 | 5.08 ± 0.20 | 4.42 ± 0.64 | 3 to 6 | fold change in L-GpNA Kii (transpeptidation) relative to Compound 16 (Human GGT1 (hGGT) [1]): 2 fold
O=[N+]([O-])c1ccc(S(=O)(=O)Nc2nnc(Cc3ccc(Cl)c(Cl)c3)s2)cc1 [Compound 20] | – | – | 10 µM and 10.3 µM | – | – | – | – | – | Ki (Human GGT1 (hGGT) [2]; read-out: D-GpNA Kii, Compound 20, Table 7): 78 ± 2 µM; Ki (Human GGT1 (hGGT) [2]; read-out: Kii with D-GpNA, competitive inhibition of the hydrolysis reaction, Compound 20, competitive vs D-GpNA): 78 µM and 78.2 µM; Ki (hGGT; Compound 20, inhibition of GSH hydrolysis, Table 7): 859 ± 83 µM
Nc1ccc(S(=O)(=O)Nc2nnc(Cc3ccccc3)s2)cc1 [Compound 25] | – | 58 ± 6 | – | – | – | – | – | – | Ki (Human GGT1 (hGGT) [1]; [9]): 42 ± 2 µM; Ki (Human GGT1 (hGGT) [1]; [10]): 74 ± 4 µM; Ki (hGGT; GSH hydrolysis, Table 5): 242 ± 6 µM
O=[N+]([O-])c1ccc(S(=O)(=O)Nc2nnc(Cc3ccc(F)cc3)s2)cc1 [Compound 19] | – | – | 31.8 ± 0.7 µM | – | 1.53 ± 0.09 | 5.39 ± 0.28 | 3.52 ± 0.6 | 3 to 6 | –
Nc1ccc(S(=O)(=O)Nc2nnc(Cc3ccc(F)cc3)s2)cc1 [Compound 26] | – | 24 ± 2 | – | – | – | – | – | – | Ki (Human GGT1 (hGGT) [1]; [9]): 47 ± 7 µM; Ki (Human GGT1 (hGGT) [1]; [10]): 58 ± 4 µM; Ki (hGGT; GSH hydrolysis, Table 5): 355 ± 16 µM
COc1ccc(Cc2nnc(NS(=O)(=O)c3ccc4ccccc4c3)s2)cc1 [Compound 30] | – | 415 ± 50 | – | – | – | – | – | – | Ki (Human GGT1 (hGGT) [1]; Table 6, read-out: GlyGly with L-GpNA Kis): 143 ± 20 µM; Ki (Human GGT1 (hGGT) [1]; Table 6, read-out: L-GpNA with GlyGly Kii): 364 ± 43 µM; Ki (hGGT; GSH hydrolysis, Table 6): 206 ± 37 µM; fold less potent than Compound 6 in inhibiting catabolism of GSH (hGGT; relative to Compound 6): 2.1 fold
NS(=O)(=O)c1ccccc1.[Na] [SBS, Sodium benzenesulfonamide, reference compound] | – | – | – | – | – | – | – | – | Ki (Human GGT1 (hGGT) [1]; SBS, read-out: Kii, transpeptidation, vs L-GpNA): 28800 ± 1600 µM; Ki (Human GGT1 (hGGT) [1]; SBS, read-out: Kis, transpeptidation, vs GlyGly): 2280 ± 70 µM; fold less effective than OU749 in inhibiting hydrolysis of D-GpNA (Human GGT1 (hGGT) [2]): more than 2.000 fold
N[C@H](C(=O)O)[C@@H]1CC(Cl)=NO1 [acivicin, reference compound] | – | – | – | – | – | – | – | – | kon (Human GGT1 (hGGT) [2]; pH 7.4, read-out: kon (second order rate constant)): 2.85 M⁻¹ s⁻¹; kon (Human GGT1 (hGGT) [2]; pH 7.4, read-out: kon corrected for the presence of D-GpNA): 8 M⁻¹ s⁻¹
COc1ccc(Cc2nnc(NS(=O)(=O)c3ccc(C(F)(F)F)cc3)s2)cc1 [Compound 12] | 46.3 ± 3.5 µM | – | – | – | – | – | – | – | Ki (Human GGT1 (hGGT) [1]; [4]): 117 ± 7.4 µM
Cc1ccc(Cc2nnc(NS(=O)(=O)c3ccc([N+](=O)[O-])cc3)s2)cc1 [Compound 17] | – | – | 56.9 ± 8.3 µM | 113 ± 5.2 | 2.62 ± 0.79 | 11.25 ± 4.27 | 4.29 ± 2.2 | 3 to 6 | –
COc1ccc(Cc2nnc(NS(=O)(=O)c3ccc([N+](=O)[O-])cc3)s2)cc1 [Compound 11] | 96 µM and 95.7 µM | – | – | – | 1.59 ± 0.14 | 8.63 ± 1.21 | 5.43 ± 2.04 | – | Ki (Human GGT1 (hGGT) [1]; [4]): 93 µM and 92.8 µM; difference in affinity for D-γ-glutamyl and L-γ-glutamyl enzyme intermediates (Human GGT1 (hGGT) [1]; human): 2.5 fold; fold change in GlyGly Kis (transpeptidation) relative to Compound 16 (Human GGT1 (hGGT) [1]; increase relative to Compound 16): more than 2 fold; fold change in L-GpNA Kii (transpeptidation) relative to Compound 16 (Human GGT1 (hGGT) [1]): less than 2 fold
COc1ccc(Cc2nnc(NS(=O)(=O)c3ccccc3)s2)cc1 [Compound 1] | 54.1 ± 3.9 µM | – | – | – | – | – | – | – | Ki (hGGT; GSH hydrolysis, Table 4): 376 ± 50 µM

— patent US9540337B2, “Gamma-glutamyl transpeptidase inhibitors and methods of use” (The Board of Regents of the University of Oklahoma, priority 2012, dated 2017)
